Measured values: PubChem BioAssay (NCI)
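At the GI50, growth is halved. TGI denotes the concentration required for complete inhibition of growth.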

How the values were obtained:
Assay in all cases: NCI tumour cell line growth inhibition, 384-well format
[1] = tested on: SR leukemia
[2] = tested on: MDA-MB-231 breast
[3] = tested on: NCI-H522 lung
[4] = tested on: EKVX NSCLC
[5] = tested on: U251 glioblastoma
[6] = tested on: HL-60(TB) leukemia
[7] = tested on: M14 melanoma
[8] = tested on: LOX IMVI melanoma
[9] = tested on: SF-295 CNS
[10] = tested on: SF-539 CNS
[11] = tested on: SN12C renal
[12] = tested on: SNB-75 CNS
[13] = tested on: BT-549 breast

`COc1cc2c(Nc3cc(Cl)c(OC)c(Cl)c3)c(C#N)cnc2cc1OCCCN1CCN(C)CC1` was tested. Which GI50 [1] did it give?
The GI50 was 0.195 µM.

What about the TGI [1] of the same compound?
Its TGI is 0.377 µM.

What about the GI50 [2] of the same compound?
Its GI50 is 1.36 µM.

And the TGI [2]?
Its TGI is 2.92 µM.

What about the GI50 [3] of the same compound?
Its GI50 is 0.0477 µM.

What about the TGI [3] of the same compound?
The TGI was 0.234 µM.

And the GI50 [4]?
The GI50 was 0.404 µM.

And the TGI [4]?
The TGI was 1.74 µM.

What about the GI50 [5] of the same compound?
The GI50 was 1.24 µM.

And the TGI [5]?
Its TGI is 2.51 µM.

And the GI50 [6]?
Its GI50 is 0.795 µM.

And the TGI [6]?
Its TGI is 2.06 µM.

What about the GI50 [7] of the same compound?
The GI50 was 0.191 µM.

What about the TGI [7] of the same compound?
Its TGI is 0.633 µM.

What about the GI50 [8] of the same compound?
The GI50 was 1.23 µM.

What about the TGI [8] of the same compound?
The TGI was 2.49 µM.

What about the GI50 [9] of the same compound?
The GI50 was 0.909 µM.

And the TGI [9]?
Its TGI is 2.15 µM.

What about the GI50 [10] of the same compound?
The GI50 was 0.222 µM.

What about the TGI [10] of the same compound?
Its TGI is 0.484 µM.

What about the GI50 [11] of the same compound?
The GI50 was 0.321 µM.

What about the TGI [11] of the same compound?
Its TGI is 1.43 µM.

What about the GI50 [12] of the same compound?
Its GI50 is 1.27 µM.

What about the TGI [12] of the same compound?
The TGI was 2.54 µM.

What about the GI50 [13] of the same compound?
The GI50 was 0.785 µM.

What about the TGI [13] of the same compound?
Its TGI is 2.08 µM.
